# Measured values published in paper PMC9377253, “Antiproliferative and cytotoxic effects of sesquiterpene lactones isolated from Ambrosia artemisiifolia on human adenocarcinoma and normal cell lines” (Pharmaceutical Biology, 2022).
# Assays:
# [1] = MTT cytotoxicity assay (24 h), MRC-5; assay type: cell-based; conditions: human, MRC-5 embryonal lung fibroblast cells, 24 h incubation
# Description: (§1) MRC-5 human embryonal lung fibroblast cell lines (ATCC CCL-171) were purchased from LGC Promochem, Teddington, UK. The cell line was cultured in Eagle’s Minimal Essential Medium (EMEM, containing 4.5 g/L glucose) supplemented with a non-essential amino acid mixture, a selection of vitamins and 10% heat-inactivated foetal bovine serum. The cell lines were incubated at 37 °C, in a 5% CO2, 95% air atmosphere.
# (§2) MRC-5 non-cancerous human embryonic lung fibroblast and human colonic adenocarcinoma cell lines (doxorubicin-sensitive Colo 205 and multidrug-resistant Colo 320 colonic adenocarcinoma cells) were used to determine the effect of compounds on cell proliferation and growth. The effects of increasing concentrations of compounds on cell proliferation and growth were tested in 96-well flat-bottomed microtitre plates. The compounds were diluted in a volume of 100 μL of medium.
# (§3) The adherent human embryonal lung fibroblast cells were seeded overnight and cultured in 96-well flat-bottomed microtitre plates prior to the assay, using EMEM supplemented with 10% heat-inactivated foetal bovine serum. The density of the cells was adjusted to 6 × 10^3 cells (antiproliferative assay) or 1 × 10^4 cells (cytotoxicity assay) in 100 μL per well, the cells were seeded for 24 h at 37 °C, 5% CO2, then the medium was removed from the plates containing the cells, and the dilutions of compounds (200 µL) previously made in a separate plate were added to the cells in.
# (§4) The culture plates were incubated at 37 °C for 72 h (antiproliferative test) or 24 h (cytotoxicity test); at the end of the incubation period, 20 μL of MTT (thiazolyl blue tetrazolium bromide, Sigma, St. Louis, MO, USA) solution (from a stock solution of 5 mg/mL) were added to each well. After incubation at 37 °C for 4 h, 100 μL of sodium dodecyl sulphate (SDS) (Sigma) solution (10% in 0.01 M HCI) were added to each well and the plates were further incubated at 37 °C overnight. Cell growth was determined by measuring the optical density (OD) at 540/630 nm with Multiscan EX ELISA reader (Thermo Labsystems, Cheshire, WA, USA). Inhibition of the cell growth was determined according to the formula below: Inhibition %=100−[OD sample−OD medium control/OD cell control−OD medium control]×100
# (§5) Results are expressed in terms of IC50, defined as the inhibitory dose that reduces the growth of the cells exposed to the tested compounds by 50%.
# [2] = system: multidrug-resistant Colo 320 colonic adenocarcinoma cells; assay: MTT antiproliferative assay (72 h), Colo 320; assay type: cell-based, human; conditions: for IC50: MTT, 72 h incubation, read-out: Antiproliferative IC50, Colo320; for selectivity index (SI), antiproliferative: Colo320 versus MRC-5, cell proliferation inhibition
# Description: (§6) Human colonic adenocarcinoma cell lines (Colo 205 doxorubicin-sensitive and Colo 320/MDR-LRP multidrug-resistant expressing ABCB1 (MDR1)-LRP), ATCC-CCL-220.1 (Colo 320) and CCL-222 (Colo 205) were purchased from LGC Promochem, Teddington, UK. The cells were cultured in RPMI 1640 medium supplemented with 10% heat-inactivated foetal bovine serum, 2 mM L-glutamine, 1 mM Na-pyruvate and 100 mM Hepes. The cell lines were incubated at 37 °C, in a 5% CO2, 95% air atmosphere. The semi-adherent human colon cancer cells were detached with Trypsin-Versene (EDTA) solution for 5 min at 37 °C.
# as §2
# (§7) In case of the colonic adenocarcinoma cells, the 2-fold serial dilutions of compounds were prepared in 100 μL of RPMI 1640, horizontally. The semi-adherent colonic adenocarcinoma cells were treated with Trypsin-Versene (EDTA) solution. The density of the cells was adjusted to 6 × 10^3 cells (antiproliferative assay) or 1 × 10^4 cells (cytotoxicity assay) in 100 μL of RPMI 1640 medium, and was added to each well, with the exception of the medium control wells. The final volume of the wells containing compounds and cells was 200 μL.
# as §4, §5
# [3] = system: multidrug-resistant Colo 320 colonic adenocarcinoma cells expressing the ABCB1 transporter; assay: Checkerboard combination assay with doxorubicin; assay type: cell-based, human; conditions: for drug interaction with doxorubicin: Colo320, at certain concentrations
# Description: A checkerboard microplate method was applied to study the effect of drug interactions between the compounds and doxorubicin. The assay was carried out using multidrug-resistant Colo 320 colonic adenocarcinoma cells expressing the ABCB1 transporter. The final concentration of the chemotherapeutic agent doxorubicin used in the combination experiment was chosen in accordance with their antiproliferative activity previously determined. The dilutions of the chemotherapeutic drug were made in a horizontal direction in 100 μL, and the dilutions of the compounds vertically in the microtitre plate in 50 μL volume. The cells were re-suspended in culture medium and distributed into each well in 50 μL containing 6 × 10^3 cells each. The plates were incubated for 72 h at 37 °C in 5% CO2 atmosphere. The cell growth rate was determined after MTT staining. At the end of the incubation period, 20 μL of MTT (thiazolyl blue tetrazolium bromide, Sigma) solution (from a stock solution of 5 mg/mL) was added to each well. After incubation at 37 °C for 4 h, 100 μL of SDS (Sigma-Aldrich, St. Louis, MO, USA) solution (10% in 0.01 M HCl; Merck, Darmstadt, Germany) were added to each well and the plates were further incubated at 37 °C overnight. OD was measured at 540/630 nm with Multiscan EX ELISA reader (Thermo Labsystems, Cheshire, WA). Combination index (CI) values at 50% of the growth inhibition dose (ED50), were determined using CompuSyn software (ComboSyn, Inc., Paramus, NJ) to plot four to five data points to each ratio.
# [4] = system: multidrug-resistant Colo 320 colonic adenocarcinoma cells; assay: MTT cytotoxicity assay (24 h), Colo 320; assay type: cell-based; conditions: Homo sapiens, COLO 320, 24 h, 24 h incubation, read-out: Cytotoxicity IC50, Colo320
# Description: as §6, §2, §7, §4, §5
# [5] = system: doxorubicin-sensitive Colo 205 colonic adenocarcinoma cells; assay: MTT cytotoxicity assay (24 h), Colo 205; assay type: cell-based, human; conditions: Homo sapiens, COLO 205; MTT, 24 h incubation; read-out: Cytotoxicity IC50, Colo205
# Description: as §6, §2, §7, §4, §5
# [6] = system: doxorubicin-sensitive Colo 205 colonic adenocarcinoma cells; assay: MTT antiproliferative assay (72 h), Colo 205; assay type: cell-based, human; conditions: read-out: Antiproliferative IC50, Colo205
# Description: as §6, §2, §7, §4, §5
# [7] = system: MRC-5 human embryonal lung fibroblast cell line; assay: MTT antiproliferative assay (72 h), MRC-5; assay type: cell-based
# Description: as §1, §2, §3, §4, §5
# [8] = system: MCF-7 mp53 cells; parameters: method as in Sturgeon et al. [2005]; conditions: ref Sturgeon et al. [2005]; cited from earlier work
# [9] = system: breast cancer cell lines (MCF-7, JIMT-1 and HCC1937); parameters: method as in Sotillo et al. [2017]; conditions: ref Sotillo et al. [2017]; cited from earlier work
# [10] = system: NF-κB; parameters: method as in Sotillo et al. [2017]; conditions: ref Sotillo et al. [2017]; cited from earlier work
# [11] = Homo sapiens, COLO 205, 72 h incubation
# [12] = Homo sapiens, MRC5, 72 h incubation
Compound,"IC50 ([2]; Homo sapiens, COLO 320, 72 h)","IC50 [6, 11]",IC50 [2],IC50 at 24 h [1],IC50 [4],IC50 [5],"IC50 [7, 12]",cytotoxicity to breast cancer cell lines [9],TNF-α-induced translocation of NF-κB [10],further results
"C=C1C(=O)O[C@@H]2C[C@H](C)[C@]3(O)CCC(=O)[C@@]3(C)C[C@H]12 [Compound 3, peruvin]",21.2 ± 0.72 µM,26.4 ± 1.12 µM,,11.9 ± 1.45 µM,82.4 ± 1.17 µM,64.4 ± 1.78 µM,26.4 ± 1.3 µM,,,"Type of interaction ([3]; starting concentration 65 µM, ratio 7.54:1): Moderate antagonism; Type of interaction ([3]; starting concentration 65 µM, ratio 15.08:1): Antagonism; Type of interaction ([3]; starting concentration 65 µM, ratio 30.16:1): Antagonism; Type of interaction ([3]; starting concentration 65 µM, ratio 60.32.1): Moderate antagonism; Type of interaction ([3]; starting concentration 65 µM, ratio 120.64:1): Antagonism; Type of interaction ([3]; starting concentration 65 µM, ratio 241.28:1): Additive effect"
"C=C1C(=O)O[C@@H]2[C@H]1CC[C@H](C)[C@]1(CCC(=O)O1)[C@@]2(C)O [Compound 4, psilostachyin]",5.29 µM,14.4 ± 1 µM,8.78 ± 0.22 µM,41.8 ± 2.43 µM,,42.4 ± 2.37 µM,26.7 ± 0.51 µM,,,"selectivity index (SI), antiproliferative [2]: 3.04; Type of interaction ([3]; starting concentration 25 µM, ratio 2.9:1): Additive effect; Type of interaction ([3]; starting concentration 25 µM, ratio 5.8:1): Moderate antagonism; Type of interaction ([3]; starting concentration 25 µM, ratio 11.6:1): Synergism; Type of interaction ([3]; starting concentration 25 µM, ratio 23.2:1): Antagonism; Type of interaction ([3]; starting concentration 25 µM, ratio 46.4:1): Moderate antagonism; Type of interaction ([3]; starting concentration 25 µM, ratio 92.2:1): Slight antagonism; effect on mitosis of MCF-7 mp53 cells (G2 checkpoint inhibitors) [8]: blocked MCF-7 mp53 cells in mitosis"
C=C1C(=O)O[C@@H]2[C@H]1CC[C@H](C)[C@@H]1C=CC(=O)[C@@]21C [ambrosin],,,,,,,,cytotoxic,inhibited,
C=C1C(=O)O[C@@H]2[C@H]1CC[C@H](C)[C@]1(O)CCC(=O)[C@@]21C [coronopilin],,,,,,,,cytotoxic,inhibited,
C=C1C(=O)O[C@@H]2[C@H]1CC[C@H](C)[C@@H]1CCC(=O)[C@@]21C [damsin],,,,,,,,cytotoxic,inhibited,

# Continued, in another order:
"IC50 ([2]; Homo sapiens, COLO 320, 72 h)","IC50 [6, 11]",IC50 [2],Compound,IC50 at 24 h [1],IC50 [4],IC50 [5],"IC50 [7, 12]",cytotoxicity to breast cancer cell lines [9],TNF-α-induced translocation of NF-κB [10],further results
,> 100 µM,> 100 µM,"C=C1C(=O)O[C@@H]2[C@H]1CCC(C)=C(CCC(=O)OC)[C@@]2(C)O [Compound 5, 1′-noraltamisin]",> 100 µM,> 100 µM,> 100 µM,> 100 µM,,,"IC50 ([2]; listed as 1′-Noraltamisin): 8.78 µM; Type of interaction ([3]; starting concentration 30 µM, ratio 3.48:1): Antagonism; Type of interaction ([3]; starting concentration 30 µM, ratio 6.69:1): Additive effect; Type of interaction ([3]; starting concentration 30 µM, ratio 13.92:1): Slight synergism; Type of interaction ([3]; starting concentration 30 µM, ratio 27.84:1): Additive effect; Type of interaction ([3]; starting concentration 30 µM, ratio 55.68:1): Moderate antagonism; Type of interaction ([3]; starting concentration 30 µM, ratio 111.36:1): Additive effect"
,,5.29 ± 0.15 µM,"C=C1C(=O)O[C@@H]2[C@H]1CCC(C)=C1CCC(=O)O[C@]12C [Compound 6, psilostachyin B]",,,,,,,"selectivity index (SI), antiproliferative [2]: 4.98; Type of interaction ([3]; starting concentration 100 µM, ratio 11.6:1): Syn.; Type of interaction ([3]; starting concentration 100 µM, ratio 23.2:1): Syn.; Type of interaction ([3]; starting concentration 100 µM, ratio 46.4:1): Antagonism; Type of interaction ([3]; starting concentration 100 µM, ratio 92.8:1): Slight antagonism; Type of interaction ([3]; starting concentration 100 µM, ratio 185.6:1): Moderate ant.; Type of interaction ([3]; starting concentration 100 µM, ratio 371.2:1): Antagonism; IC50 ([6]; 72 h incubation): 11 ± 0.56 µM; IC50 ([7]; 72 h incubation): 26.4 ± 0.81 µM"
34.5 ± 2.07 µM,17 ± 1.99 µM,,"C=C1C(=O)O[C@@H]2[C@H]1CC[C@H](C)[C@H](CCC(=O)OC)[C@@]2(C)O [Compound 7, 1,10-dihydro-1′-noraltamisin]",> 100 µM,86.6 ± 1.06 µM,53.6 ± 0.87 µM,39.8 ± 0.53 µM,,,"drug interaction with doxorubicin [3]: synergistic effects; Type of interaction ([3]; starting concentration 150 µM, ratio 17.42:1): Very strong syn.; Type of interaction ([3]; starting concentration 150 µM, ratio 34.84:1): Moderate syn.; Type of interaction ([3]; starting concentration 150 µM, ratio 69.68:1): Moderate syn.; Type of interaction ([3]; starting concentration 150 µM, ratio 139.36:1): Moderate syn.; Type of interaction ([3]; starting concentration 150 µM, ratio 278.72:1): Moderate syn.; Type of interaction ([3]; starting concentration 150 µM, ratio 557.44:1): Syn."
50.4 ± 2.98 µM,66.8 ± 0.96 µM,,"COc1c(O)cc2oc(-c3ccc(O)c(O)c3)c(OC)c(=O)c2c1O [Compound 8, axillarin]",> 100 µM,> 100 µM,> 100 µM,4.03 ± 0.56 µM,,,drug interaction with doxorubicin [3]: synergistic effects
0.14 ± 0.03 µM,0.24 ± 0.03 µM,,"COc1cccc2c1C(=O)c1c(O)c3c(c(O)c1C2=O)C[C@@](O)(C(=O)CO)C[C@@H]3O[C@H]1C[C@H](N)[C@H](O)[C@H](C)O1 [Doxorubicin, doxorubicin, reference compound]",,,,0.53 ± 0.06 µM,,,
